Columns and labels:
LA cardiomyocytes [1] = assay: Spontaneous SR Ca2+ release events (SCaEs) of isolated LA cardiomyocytes; assay type: cell-based, rat; settings: HFpEF LA cardiomyocytes after chronic treatment
Excerpt: Cardiomyocyte isolation. LA and LV cardiomyocytes were isolated using enzymatic digestion as previously described in detail. See Bode D, Guthof T, Pieske B M, Heinzel F R, Hohendanner F: “Isolation of Atrial Cardiomyocytes from a Rat Model of Metabolic Syndrome-related Heart Failure with Preserved Ejection Fraction,” J Vis Exp 2018(137).
Solutions and chemicals. Chemicals were obtained from Sigma-Aldrich (St. Louis, MO, USA) unless noted otherwise. The dual SGLT1/2 inhibitor sotagliflozin was provided by Lexicon Pharmaceuticals (The Woodlands, TX, USA). Fluorescent dyes Fura-2 AM, Rhod-2 AM, MitoTracker red, MitoTracker green, TMRE and H2-DCF were obtained from Thermo Fisher Scientific (Waltham, MA, USA). Tyrode solution contained (in mM): 130 NaCL, 4 KCl, 2 CaCl, 1 MgCl2, 10 Glucose, 10 HEPES; pH adjusted to 7.4 with NaOH. LA cardiomyocytes were plated on laminin-coated glass coverslips. 20 mM caffeine was added to Tyrode solution to induce sarcoplasmic reticulum (SR) Ca^2+ release and obtain a measure of SR Ca^2+ content. […]
Ca^2+ measurements and sarcomere shortening. Radiometric Ca^2+ measurements (excitation: 340 nm and 385 nm, emission: 510±10 nm; [Ca^2+] expressed as the ratio R=F340/F380) were performed either with a CytoCypher MultiCell System (CytoCypher BV, Netherlands; FIGS. 1C-F, 2D-G, 4A-F) or an Axiovert 200 microscope (Zeiss, Oberkochen, Germany) fluorescence imaging assembly (FIGS. 2A-C, 2H-J, 3A-E, 6E-I). […] Experiments were conducted at 37° C. and CaT were recorded at steady state (following electric stimulation).
CaT and sarcomere shortening of LA and LV cardiomyocytes were recorded for 10 s at 3 Hz stimulation. See FIGS. 2D-G, 4A-F. Electric stimulation was turned off and spontaneous SR Ca^2+ release events (See Voigt N, Heijman J, Wang Q, Chiang D Y, Li N, Karck M, Wehrens X H T, Nattel S, Dobrev D: “Cellular and molecular mechanisms of atrial arrhythmogenesis in patients with paroxysmal atrial fibrillation,” Circulation 2014, 129(2):145-156) (SCaEs) immediately recorded for a duration of 10 s (FIG. 1C-F). […]

LA cardiomyocytes [2] = assay: ROS production (H2-DCF) in LA cardiomyocytes; assay type: cell-based, rat; settings: HFpEF
Description: ROS production. LA cardiomyocytes were starved of glucose for 1 h at 37° C., loaded with H2-DCF and transferred to an LSM 800 laser scanning microscope. Two-dimensional images (excitation: 488 nm, emission: […]) were acquired for a duration of 30 s (interval: 2 s, resolution: 256×256 px, pixel size: 0.624 μm, pixel time: 8.24 μs, laser intensity: 0.6%). Cells were exposed to 30 mM glucose and another set of images acquired for a duration of 90 s. Image sequences acquired between 0-30 s (glucose starved) and 90-120 s (glucose saturated) were individually assessed. H2-DCF signal intensity (F) of the initial image was defined as F0, reactive oxygen species (ROS) accumulation calculated as ΔF=F−F0 per image, averaged per image sequence and reported as the respective rate ΔF/(F0*t).

**Q.** Which “amplitude of SCaEs” value (LA cardiomyocytes [1]) does the source give for `CCOc1ccc(Cc2cc([C@@H]3O[C@H](SC)[C@@H](O)[C@H](O)[C@H]3O)ccc2Cl)cc1` [sotagliflozin, (2S,3R,4R,5S,6R)-2-(4-chloro-3-(4-ethoxybenzyl)phenyl)-6-(methylthio)tetrahydro-2H-pyran-3,4,5-triol] here?
**A.** Its value is “significantly reduced”.

**Q.** And the SCaE event frequency (LA cardiomyocytes [1]; non-stimulated interval after 3 Hz)?
**A.** Its SCaE event frequency is “remained unaltered”.

**Q.** And the “decrease of ROS production after reintroduction of glucose” value (LA cardiomyocytes [2]; 30 mM glucose)?
**A.** The value was “this effect could not be observed”.

**Q.** What about the ROS production (LA cardiomyocytes [2]; after 1 h glucose starvation) of the same compound?
**A.** The ROS production was “significantly reduced”.
